Measured values published in US5663186A, “Treatment of atherosclerosis with angiotensin II receptor blocking imidazoles” (Merck & Co., Inc., priority 1995, dated 1997).

System: Renal Hypertensives Rats
Experiment: Antihypertensive effects in renal hypertensive rats (left renal artery ligation)
Assay type: in vivo, rat
Experimental: This procedure increases blood pressure by increasing renin production with consequent elevation of AII levels. Compounds are administered orally at 100 mg/kg and/or intravenously via a cannula in the jugular vein at 10 mg/kg. Arterial blood pressure is continuously measured directly through a carotid artery cannula and recorded using a pressure transducer and a polygraph. Blood pressure levels after treatment are compared to pretreatment levels to determine the antihypertensive effects of the compounds (See Table 1).
Compound listed in Table 2 was tested in the same manner as described for Table 1, except that in the test for antihypertensive effects in renal hypertensive rats, the compounds were administered orally at 30 mg/kg and intravenously at 3 mg/kg.

## CCCCc1nc(Cl)c(CO)n1Cc1ccc(-c2ccccc2-c2nnn[nH]2)cc1.[K] [Losartan, 2-n-butyl-4-chloro-1-[(2'-(tetrazol-5-yl)-1,1'-biphenyl-4-yl)-methyl]-1H-imidazole-5-methanol potassium salt]
intravenous, 10 mg/kg or less
  Antihypertensive Effects in Renal Hypertensives Rats, Intravenous Activity: + (Significant decrease in blood pressure at 10 mg/kg or less)
oral, 100 mg/kg or less
  Antihypertensive Effects in Renal Hypertensives Rats, Oral Activity: + (Significant decrease in blood pressure at 100 mg/kg or less)
